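Each compound was tested at five concentrations against cells in 96-well plates for 48 hours. The concentration for 50% growth inhibition is given as GI50.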 The source made the active and inactive calls. Cut-off read from the data, not from the text of the source: active = GI50 up to about 1.1 µM and inactive = higher.
Columns and labels:
Assay in all cases: inhibition of tumour cell growth, NCI panel, 48 h
A498 = tested on: A498
ACHN = tested on: ACHN
CAKI-1 = tested on: CAKI-1
DLD-1 = tested on: DLD-1
HCT-116 = tested on: HCT-116
HL-60 = tested on: HL-60
LOX IMVI = tested on: LOX IMVI
OVCAR-5 = tested on: OVCAR-5
RPMI-8226 = tested on: RPMI-8226
SF-295 = tested on: SF-295
SK-MEL-28 = tested on: SK-MEL-28
SK-OV-3 = tested on: SK-OV-3
SN12C = tested on: SN12C
U-251 = tested on: U-251
EKVX = tested on: EKVX
NCI-H522 = tested on: NCI-H522
RXF 393 = tested on: RXF 393
Hs-578T = tested on: Hs-578T
MDA-N = tested on: MDA-N
NCI/ADR-RES = tested on: NCI/ADR-RES

Compound	GI50 (A498)	GI50 (ACHN)	GI50 (CAKI-1)	GI50 (DLD-1)	GI50 (HCT-116)	GI50 (HL-60)	GI50 (LOX IMVI)	GI50 (OVCAR-5)	GI50 (RPMI-8226)	GI50 (SF-295)	GI50 (SK-MEL-28)	GI50 (SK-OV-3)	GI50 (SN12C)	GI50 (U-251)	GI50 (EKVX)	GI50 (NCI-H522)	GI50 (RXF 393)	GI50 (Hs-578T)	GI50 (MDA-N)	GI50 (NCI/ADR-RES)
COC(=O)C(Br)C1CCc2ccccc21 (centres undefined)	> 100 µM (inactive)	> 100 µM (inactive)	> 100 µM (inactive)	> 100 µM (inactive)	> 100 µM (inactive)	26.5 µM (inactive)	> 100 µM (inactive)	> 100 µM (inactive)	71.9 µM (inactive)	52.6 µM (inactive)	> 100 µM (inactive)	> 100 µM (inactive)	> 100 µM (inactive)	> 100 µM (inactive)	–	–	–	–	–	–
Cc1nnc2c3nnc(C)n3c3ccccc3n12	> 100 µM (inactive)	> 100 µM (inactive)	> 100 µM (inactive)	> 100 µM (inactive)	> 100 µM (inactive)	–	> 100 µM (inactive)	> 100 µM (inactive)	> 100 µM (inactive)	> 100 µM (inactive)	> 100 µM (inactive)	> 100 µM (inactive)	> 100 µM (inactive)	> 100 µM (inactive)	> 100 µM (inactive)	> 100 µM (inactive)	> 100 µM (inactive)	–	–	–
CC/C=C\C/C=C\C1CC(=O)NCCCNCCCCN1 (centres undefined)	–	–	> 100 µM (inactive)	> 100 µM (inactive)	> 100 µM (inactive)	> 100 µM (inactive)	> 100 µM (inactive)	> 100 µM (inactive)	–	> 100 µM (inactive)	> 100 µM (inactive)	–	> 100 µM (inactive)	> 100 µM (inactive)	> 100 µM (inactive)	55.3 µM (inactive)	4.83 µM (inactive)	–	–	–
CCCCCCCCCCCCCC(=O)OCC(C[As](=O)(O)O)OC(=O)CCCCCCCCCCCCC (centres undefined)	> 100 µM (inactive)	> 100 µM (inactive)	> 100 µM (inactive)	> 100 µM (inactive)	> 100 µM (inactive)	–	–	–	> 100 µM (inactive)	–	> 100 µM (inactive)	> 100 µM (inactive)	92 µM (inactive)	43.9 µM (inactive)	> 100 µM (inactive)	> 100 µM (inactive)	35.3 µM (inactive)	–	–	–
C#C[C@@H](CCCC)OC(=O)N[C@H](C)c1ccccc1	–	43.8 µM (inactive)	42.9 µM (inactive)	59.4 µM (inactive)	34.3 µM (inactive)	15.3 µM (inactive)	33.2 µM (inactive)	33 µM (inactive)	23 µM (inactive)	77.1 µM (inactive)	> 100 µM (inactive)	> 100 µM (inactive)	71.6 µM (inactive)	37.4 µM (inactive)	60.7 µM (inactive)	1.74 µM (inactive)	2.36 µM (inactive)	–	–	–
NC(=O)CCC(NC(=O)C(F)(F)F)C(=O)O (centres undefined)	> 100 µM (inactive)	> 100 µM (inactive)	> 100 µM (inactive)	> 100 µM (inactive)	> 100 µM (inactive)	–	> 100 µM (inactive)	> 100 µM (inactive)	> 100 µM (inactive)	> 100 µM (inactive)	> 100 µM (inactive)	> 100 µM (inactive)	> 100 µM (inactive)	> 100 µM (inactive)	> 100 µM (inactive)	> 100 µM (inactive)	> 100 µM (inactive)	–	–	–
Cc1nn(C(=O)c2ccccc2O)c2c1C(c1ccc([N+](=O)[O-])cc1)SC(=N)N2 (centres undefined)	2.78 µM (inactive)	1.17 µM (inactive)	2.19 µM (inactive)	–	2.48 µM (inactive)	4.27 µM (inactive)	3.4 µM (inactive)	> 7.76 µM (inactive)	> 7.03 µM (inactive)	3.13 µM (inactive)	> 10 µM (inactive)	6.38 µM (inactive)	4.78 µM (inactive)	2.9 µM (inactive)	> 10 µM (inactive)	5.6 µM (inactive)	2.54 µM (inactive)	0.676 µM (active)	2.89 µM (inactive)	4.51 µM (inactive)
Cc1cc(N2CCN(C)CC2)n2nc(-c3ccc(Cl)cc3)nc2n1	43.3 µM (inactive)	50.6 µM (inactive)	> 100 µM (inactive)	–	61.7 µM (inactive)	27.3 µM (inactive)	61.1 µM (inactive)	> 100 µM (inactive)	56.5 µM (inactive)	91.2 µM (inactive)	91.8 µM (inactive)	> 100 µM (inactive)	54.6 µM (inactive)	> 100 µM (inactive)	80.5 µM (inactive)	84.7 µM (inactive)	31.5 µM (inactive)	> 100 µM (inactive)	92.9 µM (inactive)	90.6 µM (inactive)
O=c1cc(NNc2cccc3ccccc23)[nH]c(=O)[nH]1	19.8 µM (inactive)	16.5 µM (inactive)	14.7 µM (inactive)	–	17.4 µM (inactive)	2.9 µM (inactive)	13.6 µM (inactive)	17.2 µM (inactive)	5.53 µM (inactive)	17.5 µM (inactive)	18.6 µM (inactive)	26.7 µM (inactive)	16.2 µM (inactive)	14.6 µM (inactive)	14.6 µM (inactive)	14.8 µM (inactive)	17.9 µM (inactive)	26.2 µM (inactive)	12.1 µM (inactive)	19.5 µM (inactive)
C/C=C\C(C)=C/C(C)C(=O)CC(O)CC1CC(=O)NC(=O)C1 (centres undefined)	28.6 µM (inactive)	17.5 µM (inactive)	7.13 µM (inactive)	–	16.4 µM (inactive)	40.2 µM (inactive)	20.6 µM (inactive)	4.86 µM (inactive)	19 µM (inactive)	5.79 µM (inactive)	34.4 µM (inactive)	5.77 µM (inactive)	13 µM (inactive)	31.2 µM (inactive)	> 100 µM (inactive)	2.01 µM (inactive)	17.1 µM (inactive)	4.09 µM (inactive)	19.5 µM (inactive)	4.71 µM (inactive)
O=C1NC(N2CCCCC2)=N/C1=C\c1ccccc1O	> 100 µM (inactive)	> 100 µM (inactive)	> 100 µM (inactive)	–	> 100 µM (inactive)	43.5 µM (inactive)	> 100 µM (inactive)	> 100 µM (inactive)	> 100 µM (inactive)	> 100 µM (inactive)	> 100 µM (inactive)	> 100 µM (inactive)	> 100 µM (inactive)	> 100 µM (inactive)	> 100 µM (inactive)	19.8 µM (inactive)	> 100 µM (inactive)	77.3 µM (inactive)	> 100 µM (inactive)	> 100 µM (inactive)
COC(=O)C1=C(C(=O)OC)C2(c3ccccc3)c3ccccc3C(=O)C1N2C1CCCCC1 (centres undefined)	> 66.1 µM (inactive)	29.2 µM (inactive)	49.1 µM (inactive)	–	14.7 µM (inactive)	3.1 µM (inactive)	22 µM (inactive)	54.8 µM (inactive)	6.9 µM (inactive)	25.5 µM (inactive)	> 62.1 µM (inactive)	> 96.2 µM (inactive)	49.5 µM (inactive)	49.9 µM (inactive)	55.6 µM (inactive)	34.6 µM (inactive)	33.7 µM (inactive)	40.9 µM (inactive)	> 65 µM (inactive)	> 82 µM (inactive)
CC(=O)Nc1ccc(S(=O)(=O)N/N=C(\C)CN2C(=O)c3ccccc3C2=O)cc1	> 100 µM (inactive)	> 100 µM (inactive)	> 100 µM (inactive)	> 100 µM (inactive)	> 100 µM (inactive)	> 100 µM (inactive)	–	> 100 µM (inactive)	> 100 µM (inactive)	> 100 µM (inactive)	–	> 100 µM (inactive)	55.2 µM (inactive)	> 100 µM (inactive)	> 100 µM (inactive)	> 100 µM (inactive)	–	–	–	–
FC(F)(F)C1(c2ccccc2)SCc2nc3ccccc3n21 (centres undefined)	> 100 µM (inactive)	> 100 µM (inactive)	> 100 µM (inactive)	–	65.5 µM (inactive)	24.2 µM (inactive)	97.5 µM (inactive)	> 100 µM (inactive)	70.5 µM (inactive)	> 100 µM (inactive)	> 100 µM (inactive)	> 100 µM (inactive)	> 100 µM (inactive)	> 100 µM (inactive)	> 100 µM (inactive)	55.6 µM (inactive)	> 100 µM (inactive)	> 100 µM (inactive)	38.3 µM (inactive)	> 100 µM (inactive)
CC(=O)NNc1nc(C)c(C(=O)/C=C/c2ccc(/C=C/C(=O)c3sc(NNC(C)=O)nc3C)cc2)s1	–	> 100 µM (inactive)	> 100 µM (inactive)	> 100 µM (inactive)	> 100 µM (inactive)	> 100 µM (inactive)	> 100 µM (inactive)	> 100 µM (inactive)	–	> 100 µM (inactive)	> 100 µM (inactive)	> 100 µM (inactive)	> 100 µM (inactive)	> 100 µM (inactive)	57.3 µM (inactive)	> 100 µM (inactive)	> 100 µM (inactive)	–	–	–
CC1NCCC(CC(=O)O)C1CC(=O)O (centres undefined)	> 100 µM (inactive)	> 100 µM (inactive)	> 100 µM (inactive)	–	> 100 µM (inactive)	> 100 µM (inactive)	> 100 µM (inactive)	> 100 µM (inactive)	> 100 µM (inactive)	> 100 µM (inactive)	> 100 µM (inactive)	> 100 µM (inactive)	> 100 µM (inactive)	> 100 µM (inactive)	> 100 µM (inactive)	> 100 µM (inactive)	> 100 µM (inactive)	> 100 µM (inactive)	> 100 µM (inactive)	> 100 µM (inactive)

From ChEMBL document CHEMBL1201862, “PubChem BioAssay data set” (2004)
